Values after ≈ are worked out from the molar mass of the structure shown.
Columns and labels:
[1] = molecular target: T1, Triple specificity protein phosphatase PtpB (Mycobacterium tuberculosis (strain ATCC 25618 / H37Rv), UniProt I6WXK4); assay: Inhibition of Mycobacterium tuberculosis H37Rv ptpB expressed in Escherichia coli BL21(DE3) using pNPP as substrate preincubated for 10 mins followed by substrate addition and measured for 5 mins by spectrophotometer analysis
T1 sequence (I6WXK4 whole entry): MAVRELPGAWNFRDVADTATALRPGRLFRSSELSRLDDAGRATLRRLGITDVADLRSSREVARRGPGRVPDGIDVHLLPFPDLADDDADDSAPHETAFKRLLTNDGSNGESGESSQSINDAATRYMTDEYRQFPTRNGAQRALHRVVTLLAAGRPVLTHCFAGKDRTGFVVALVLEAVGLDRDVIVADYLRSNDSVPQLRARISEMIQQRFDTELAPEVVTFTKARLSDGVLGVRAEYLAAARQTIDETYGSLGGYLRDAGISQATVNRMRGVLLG

[2] = molecular target: T2, Triple specificity protein phosphatase PtpB (Mycobacterium tuberculosis (strain ATCC 25618 / H37Rv)) (UniProt I6WXK4); assay: (§1) Inhibition of Mycobacterium tuberculosis H37Rv ptpB expressed in Escherichia coli BL21(DE3) at 50 uM using pNPP as substrate preincubated for 10 mins followed by substrate addition and measured for 5 mins by spectrophotometer analysis relative to control; conditions: time 15.0 min
T2 sequence (whole entry): T1 sequence (I6WXK4 whole entry)

[3] = test system: Vero; assay: cells; conditions: Chlorocebus sabaeus, 48 h
Description: Cytotoxicity against african green monkey Vero cells after 48 hrs by MTT assay

[4] = test system: Mycobacterium tuberculosis; assay: Antituberculosis activity against Mycobacterium tuberculosis H37Rv by microplate alamar blue assay; format: functional
[5] = Cytotoxicity against mouse J774.G8 cells after 48 hrs by MTT assay; format: functional, cell-based; conditions: J774.G8, 48 h
[6] = molecular target: T3, Tyrosine-protein phosphatase non-receptor type 1 (Homo sapiens, UniProt P18031); assay: Inhibition of recombinant human PTP1B using pNPP as substrate preincubated for 5 mins followed by substrate addition and measured for 10 mins; format: toxicity
T3 sequence (P18031 whole entry): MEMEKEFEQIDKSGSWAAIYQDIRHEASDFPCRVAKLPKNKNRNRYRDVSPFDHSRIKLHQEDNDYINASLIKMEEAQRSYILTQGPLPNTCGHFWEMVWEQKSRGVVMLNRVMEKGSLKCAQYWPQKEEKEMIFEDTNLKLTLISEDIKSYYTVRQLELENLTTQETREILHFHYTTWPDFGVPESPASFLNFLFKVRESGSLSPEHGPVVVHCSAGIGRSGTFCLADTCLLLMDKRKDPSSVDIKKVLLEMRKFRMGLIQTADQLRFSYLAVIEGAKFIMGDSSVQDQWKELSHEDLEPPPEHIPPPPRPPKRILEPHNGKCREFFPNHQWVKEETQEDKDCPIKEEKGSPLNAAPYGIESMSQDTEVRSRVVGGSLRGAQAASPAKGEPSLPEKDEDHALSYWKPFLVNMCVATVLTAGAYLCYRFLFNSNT

[7] = molecular target: T2, Triple specificity protein phosphatase PtpB (Mycobacterium tuberculosis (strain ATCC 25618 / H37Rv)); assay: Inhibition of Mycobacterium tuberculosis H37Rv ptpB expressed in Escherichia coli BL21(DE3) at 10 uM using pNPP as substrate preincubated for 10 mins followed by substrate addition and measured for 5 mins by spectrophotometer analysis relative to control; conditions: time 15.0 min
[8] = molecular target: T4, Phosphotyrosine protein phosphatase (Mycobacterium tuberculosis, UniProt A0A045ISB3); assay: Inhibition of Mycobacterium tuberculosis ptpB
T4 sequence (A0A045ISB3 whole entry): T1 sequence (I6WXK4 whole entry)

[9] = molecular target: Triple specificity protein phosphatase PtpB (Mycobacterium tuberculosis (strain ATCC 25618 / H37Rv)) (UniProt I6WXK4); assay: as §1; conditions: time 15.0 min; remark: listed apart in the source
[10] = test system: Mycobacterium tuberculosis; assay: Antituberculosis activity against Mycobacterium tuberculosis H37Rv in mouse J774A.1 cells assessed as reduction in intracellular bacterial burden measured after 21 days by agar plate method; format: functional, organism-based; conditions: J774.A1, dose 1-10 µg/ml, time 21.0 day
[11] = Metabolic stability in mouse liver microsomes assessed as substrate remaining preincubated for 5 mins followed by NADPH addition and measured upto 30 mins by LC-MS/MS assay; format: ADME, Microsome; conditions: time < 35 min, read-out: Stability
[12] = Metabolic stability in mouse liver microsomes assessed as intrinsic clearance per mg protein preincubated for 5 mins followed by NADPH addition and measured upto 30 mins by LC-MS/MS assay; format: ADME, Microsome; conditions: time < 35 min, read-out: CLH
[13] = Metabolic stability in human liver microsomes assessed as substrate remaining preincubated for 5 mins followed by NADPH addition and measured upto 30 mins by LC-MS/MS assay; format: ADME, Microsome; conditions: time < 35 min, read-out: Stability
[14] = Metabolic stability in human liver microsomes in absence of NADPH by LC-MS/MS assay; format: ADME, Microsome
[15] = molecular target: T5, Low molecular weight protein-tyrosine phosphatase A (Mycobacterium tuberculosis) (UniProt P9WIA1); assay: Inhibition of Mycobacterium tuberculosis H37Rv ptpA expressed in Escherichia coli BL21(DE3) at 10 uM using pNPP as substrate preincubated for 10 mins followed by substrate addition and measured for 5 mins by spectrophotometer analysis relative to control; conditions: time 15.0 min
T5 sequence (whole entry): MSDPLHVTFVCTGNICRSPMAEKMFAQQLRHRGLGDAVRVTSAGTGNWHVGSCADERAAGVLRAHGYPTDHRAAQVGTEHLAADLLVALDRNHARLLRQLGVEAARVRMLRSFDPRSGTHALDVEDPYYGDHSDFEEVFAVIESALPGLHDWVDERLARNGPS

[16] = Metabolic stability in human liver microsomes assessed as half life preincubated for 5 mins followed by NADPH addition and measured upto 30 mins by LC-MS/MS assay; format: ADME, Microsome; conditions: time < 35 min
[17] = Metabolic stability in human liver microsomes assessed as intrinsic clearance per mg protein preincubated for 5 mins followed by NADPH addition and measured upto 30 mins by LC-MS/MS assay; format: ADME, Microsome; conditions: time < 35 min, read-out: CLH
[18] = Metabolic stability in mouse liver microsomes in absence of NADPH by LC-MS/MS assay; format: ADME, Microsome
[19] = Metabolic stability in mouse liver microsomes assessed as half life preincubated for 5 mins followed by NADPH addition and measured upto 30 mins by LC-MS/MS assay; format: ADME, Microsome; conditions: time < 35 min
[20] = test system: PTP1B versus M. tuberculosis ptpB; assay: Selectivity index, ratio of IC50 for human PTP1B to Mycobacterium tuberculosis H37Rv ptpB; format: toxicity; conditions: read-out: Ratio IC50

Compound	IC50 [1] [nM]	inhibition [2] [%]	IC50 [6] [nM]	other results
O=C(O)[C@H](c1ccccc1)N1C(=O)/C(=C/c2ccc(-c3ccc(F)c(C(F)(F)F)c3)cc2)SC1=S	2340	97		
NNC(=O)c1ccncc1 [ISONIAZID]				IC50 [3]: > 64 µg/mL; MIC [4]: 0.038 µg/mL (≈ 0.277 µM); IC50 [5]: > 64 µg/mL
CCCC[C@@H](C(=O)O)N1C(=O)/C(=C/c2ccc(-c3cccc(C(F)(F)F)c3)c3ccccc23)SC1=S	590		40	inhibition [7]: 98.6%
CCOC(=O)C1=C(C)Oc2nc(C)n(Cc3cn([C@@H]4O[C@H](COC(C)=O)[C@@H](OC(C)=O)[C@H](OC(C)=O)[C@H]4OC(C)=O)nn3)c(=O)c2C1c1cc(OC)c(OC)c(OC)c1 (some centres undefined)				IC50 [8]: 1560 nM
CCCC[C@@H](C(=O)O)N1C(=O)/C(=C/c2ccc(-c3cccc(C(F)(F)F)c3)c(Cl)c2)SC1=S	420		1530	inhibition [7]: 99.6%
CCCC[C@@H](C(=O)O)N1C(=O)/C(=C/c2ccc(-c3cccc(Cl)c3)c3ccccc23)SC1=S	670		1530	inhibition [7]: 99.9%
O=C(O)[C@H](C1CCCCC1)N1C(=O)/C(=C/c2ccc(-c3ccccc3C(F)(F)F)cc2)SC1=S	920	93	1600	
CCCC[C@@H](C(=O)O)N1C(=O)/C(=C/c2ccc(-c3cccc(Cl)c3)c(Cl)c2)SC1=S	330		940	inhibition [7]: 102%
CCCC[C@@H](C(=O)O)N1C(=O)/C(=C/c2ccc(-c3cccc(Cl)c3)s2)SC1=S	440		160	inhibition [7]: 99%
CCCC[C@@H](C(=O)O)N1C(=O)/C(=C/c2ccc(-c3ccc(Cl)cc3)cc2)SC1=S	600	98.9	1510	
SODIUM ORTHOVANAD				inhibition [9]: 97.4%
O=C(O)[C@H](C1CCCCC1)N1C(=O)/C(=C/c2ccc(-c3ccc(F)c(C(F)(F)F)c3)cc2)SC1=S	490	101	5370	IC50 [3]: 30.2 µg/mL (≈ 57.7 µM); Activity [10]: Dose-Dependent Effect; remaining at 0.5 h [11]: 101%; microsomal CLint [12]: < 22.1 µL/min/mg; remaining at 0.5 h [13]: 101%; Stability [14]: Stable; inhibition [15]: 27.1%; half-life [16]: > 1.55 h; MIC [4]: 30.5 µg/mL (≈ 58.3 µM); microsomal CLint [17]: < 6.1 µL/min/mg; Stability [18]: Stable; half-life [19]: > 1.55 h; IC50 [5]: > 64 µg/mL
O=C(O)[C@H](C1CCCCC1)N1C(=O)/C(=C/c2ccc(-c3ccc(C(F)(F)F)cc3)cc2)SC1=S	3130	103		
Cc1onc(C(=O)O)c1-c1cccc(-c2cc(Cl)c(O)c(Cl)c2)c1				IC50 [8]: 2980 nM
CCCC[C@@H](C(=O)O)N1C(=O)/C(=C/c2ccc(-c3ccc(Cl)s3)cc2)SC1=S	430	98.4	200	
CCCC[C@H](C(=O)O)N1C(=O)/C(=C/c2ccc(-c3ccc(F)c(C(F)(F)F)c3)cc2)SC1=S		26.4		
O=C(O)[C@@H](Cc1ccccc1)N1C(=O)/C(=C/c2ccc(-c3ccc(F)c(C(F)(F)F)c3)cc2)SC1=S		56.8		

Compound	IC50 [1] [nM]	inhibition [2] [%]	IC50 [6] [nM]	other results
CCCC[C@@H](C(=O)O)N1C(=O)/C(=C/c2ccc(-c3cccc(OC)c3)cc2)SC1=S	750	100	430	
O=C(O)[C@H](C1CCCCC1)N1C(=O)/C(=C/c2ccc(-c3cccc(Cl)c3)cc2)SC1=S	990	106	1120	
O=C(O)[C@H](Cc1ccccc1)N1C(=O)/C(=C/c2ccc(-c3ccc(F)c(C(F)(F)F)c3)cc2)SC1=S	920	71.3		
CCCC[C@@H](C(=O)O)N1C(=O)/C(=C/c2ccc(-c3ccncc3Cl)cc2)SC1=S	800	97.1		
CCCC[C@@H](C(=O)O)N1C(=O)/C(=C/c2ccc(-c3ccc(C(F)(F)F)cc3)cc2)SC1=S	860	100	1340	
CCCC[C@@H](C(=O)O)N1C(=O)/C(=C/c2ccc(-c3ccccc3)cc2)SC1=S	620	94		
O=C(O)CN1C(=O)/C(=C/c2ccc(-c3ccc(F)c(C(F)(F)F)c3)cc2)SC1=S	16400	99.4		
O=C1OC(c2ccccc2C(F)(F)F)C(c2ccc3ccccc3n2)=C1O (centres undefined)				IC50 [8]: 31100 nM
O=C(O)[C@H](C1CCCCC1)N1C(=O)/C(=C/c2ccc(-c3cccc(C(F)(F)F)c3)cc2)SC1=S	350	96.5	1750	IC50 [3]: 30.6 µg/mL (≈ 60.5 µM); Activity [10]: Dose-Dependent Effect; remaining at 0.5 h [11]: 80%; microsomal CLint [12]: < 22.1 µL/min/mg; remaining at 0.5 h [13]: 101%; Stability [14]: Stable; selectivity ratio [20]: 5; inhibition [15]: 16.6%; half-life [16]: > 1.55 h; MIC [4]: 31.4 µg/mL (≈ 62.1 µM); microsomal CLint [17]: < 6.1 µL/min/mg; Stability [18]: Stable; half-life [19]: > 1.55 h; IC50 [5]: 38 µg/mL (≈ 75.2 µM)
CCCC[C@@H](C(=O)O)N1C(=O)/C(=C/c2ccc(-c3cccc(Cl)c3)cc2)SC1=S	380	102	1870	selectivity ratio [20]: 5
CCCC[C@@H](C(=O)O)N1C(=O)/C(=C/c2ccc(-c3ccc(OC)cc3)cc2)SC1=S	550	99.4	770	
O=C(O)[C@@H](C1CCCCC1)N1C(=O)/C(=C/c2ccc(-c3ccc(F)c(C(F)(F)F)c3)cc2)SC1=S		30.5		
CCN(CC)c1ccc(/C=C2\SC(=S)NC2=O)c(OCc2ccc(Cl)cc2Cl)c1		> 35		
CCCC[C@@H](C(=O)O)N1C(=O)/C(=C/c2ccc(-c3ccc(F)c(C(F)(F)F)c3)cc2)SC1=S	480	106	11300	IC50 [3]: 28.2 µg/mL (≈ 56.7 µM); Activity [10]: Dose-Dependent Effect; remaining at 0.5 h [11]: 101%; microsomal CLint [12]: < 22.1 µL/min/mg; remaining at 0.5 h [13]: 96.9%; Stability [14]: Stable; selectivity ratio [20]: 20; inhibition [15]: 20.2%; half-life [16]: > 1.55 h; MIC [4]: 31.7 µg/mL (≈ 63.7 µM); microsomal CLint [17]: < 6.1 µL/min/mg; Stability [18]: Stable; half-life [19]: > 1.55 h; IC50 [5]: 47.7 µg/mL (≈ 95.9 µM)
CCCC[C@@H](C(=O)O)N1C(=O)/C(=C/c2ccc(-c3ccc(F)c(C(F)(F)F)c3)c3ccccc23)SC1=S	670		5540	inhibition [7]: 105%
CCCC[C@@H](C(=O)O)N1C(=O)/C(=C/c2ccc(-c3cccc(Cl)c3)cn2)SC1=S	530		390	inhibition [7]: 99.5%

Source: ChEMBL document CHEMBL5620397, “Design, synthesis and biological evaluation of 3-substituted-2-thioxothiazolidin-4-one (rhodanine) derivatives as antitubercular agents against Mycobacterium tuberculosis protein tyrosine phosphatase B” (Eur J Med Chem, 2023)
